Measurements as given in PubChem BioAssay (NCI).
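Interpolation was linear, between the two tested concentrations surrounding the appropriate level; five concentrations were tested over 48 hours in 96-well plates. GI50 = concentration required for 50% inhibition of growth. TGI: total growth inhibition.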

Legend:
Test in all cases: inhibition of tumour cell growth, NCI panel, 48 h
SF-295 CNS = tested on: SF-295 CNS
K-562 leukemia = tested on: K-562 leukemia
NCI-H226 lung = tested on: NCI-H226 lung
CCRF-CEM leukemia = tested on: CCRF-CEM leukemia
HS 578T breast = tested on: HS 578T breast
SNB-75 CNS = tested on: SNB-75 CNS
U251 CNS = tested on: U251 CNS
MDA-MB-231 breast = tested on: MDA-MB-231 breast
LOX IMVI melanoma = tested on: LOX IMVI melanoma
UACC-257 melanoma = tested on: UACC-257 melanoma

| SMILES | GI50 (SF-295 CNS) | TGI (SF-295 CNS) | GI50 (K-562 leukemia) | TGI (K-562 leukemia) | GI50 (NCI-H226 lung) | TGI (NCI-H226 lung) | GI50 (CCRF-CEM leukemia) | TGI (CCRF-CEM leukemia) | GI50 (HS 578T breast) | TGI (HS 578T breast) | GI50 (SNB-75 CNS) | TGI (SNB-75 CNS) | GI50 (U251 CNS) | TGI (U251 CNS) | GI50 (MDA-MB-231 breast) | TGI (MDA-MB-231 breast) | GI50 (LOX IMVI melanoma) | TGI (LOX IMVI melanoma) | GI50 (UACC-257 melanoma) | TGI (UACC-257 melanoma) |
| --- | --- | --- | --- | --- | --- | --- | --- | --- | --- | --- | --- | --- | --- | --- | --- | --- | --- | --- | --- | --- |
| Clc1ccc2c(c1)N(c1ncnc3ccc(-c4cnc5[nH]ccc5c4)cc13)CC2 | 880 nM | 19700 nM | 542 nM | > 100000 nM | 2760 nM | 22000 nM | 1710 nM | > 100000 nM | 555 nM | 16900 nM | 776 nM | 21100 nM | 2510 nM | 10900 nM | 2010 nM | 19300 nM | 734 nM | 10300 nM | 14800 nM | 63200 nM |
| O=[N+]([O-])c1ccc(Sc2ncnc3nc[nH]c23)c2nonc12 | 3870 nM | 20600 nM | 436 nM | 2720 nM | 11700 nM | 30500 nM | 1780 nM | 5140 nM | 15400 nM | 77000 nM | 1830 nM | 14000 nM | 14800 nM | 50500 nM | 8150 nM | 24200 nM | 1040 nM | 16000 nM | 4520 nM | 18700 nM |
| O=CNc1ncn[nH]1 |  | > 100000 nM |  | > 100000 nM |  | > 100000 nM |  | > 100000 nM |  | > 100000 nM |  | > 100000 nM |  | > 100000 nM |  | > 100000 nM |  | > 100000 nM |  | > 100000 nM |
| CCOC(=O)n1cc(C2=C(c3cn(C)c4ccccc34)COC2=O)c2ccccc21 | 46.4 nM | 11000 nM | 36.5 nM | > 32200 nM | 452 nM | > 39000 nM | 218 nM | > 100000 nM | 116 nM | 21100 nM | 24.8 nM | 1220 nM | 274 nM | 22100 nM | 347 nM | > 70500 nM | 132 nM | > 96600 nM | 3520 nM | > 100000 nM |
| O=C1c2nsnc2C(=O)c2c(F)c(F)c(F)c(F)c21 | 1400 nM | 2990 nM | 238 nM | 1010 nM | 1930 nM | 4580 nM | 117 nM | 542 nM | 342 nM | 1960 nM | 1020 nM | 2210 nM | 1380 nM | 2940 nM | 1380 nM | 2780 nM | 494 nM | 1830 nM | 1610 nM | 3000 nM |
